Data: PubChem BioAssay (NCI)
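These data come from cells grown in 96-well plates and exposed to compound for 48 hours at five concentrations. At the GI50, growth is halved. TGI: total growth inhibition.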

Assays:
Assay in all cases: growth of human tumour cells (NCI), 48 h
786-0 renal = system: 786-0 renal
A498 renal = system: A498 renal
A549 NSCLC = system: A549 NSCLC
ACHN renal = system: ACHN renal
BT-549 breast = system: BT-549 breast
CAKI-1 renal = system: CAKI-1 renal
CCRF-CEM leukemia = system: CCRF-CEM leukemia
COLO 205 colon = system: COLO 205 colon
DU-145 prostate = system: DU-145 prostate
EKVX NSCLC = system: EKVX NSCLC
HCC-2998 colon = system: HCC-2998 colon
HCT-116 colon = system: HCT-116 colon
HCT-15 colon = system: HCT-15 colon
HOP-62 NSCLC = system: HOP-62 NSCLC
HOP-92 NSCLC = system: HOP-92 NSCLC
HS 578T breast = system: HS 578T breast
HT29 colon = system: HT29 colon
IGROV1 ovarian = system: IGROV1 ovarian
K-562 leukemia = system: K-562 leukemia
KM12 colon = system: KM12 colon
LOX IMVI melanoma = system: LOX IMVI melanoma
M14 melanoma = system: M14 melanoma
MCF7 breast = system: MCF7 breast
MDA-MB-231 breast = system: MDA-MB-231 breast
MDA-MB-435 = system: MDA-MB-435
MOLT-4 leukemia = system: MOLT-4 leukemia
NCI-H23 lung = system: NCI-H23 lung
NCI-H460 lung = system: NCI-H460 lung
NCI-H522 lung = system: NCI-H522 lung
NCI/ADR-RES ovarian = system: NCI/ADR-RES ovarian
OVCAR-3 ovarian = system: OVCAR-3 ovarian
OVCAR-4 ovarian = system: OVCAR-4 ovarian
OVCAR-5 ovarian = system: OVCAR-5 ovarian
OVCAR-8 ovarian = system: OVCAR-8 ovarian
PC-3 prostate = system: PC-3 prostate
RPMI-8226 leukemia = system: RPMI-8226 leukemia
RXF 393 renal = system: RXF 393 renal
SF-268 CNS = system: SF-268 CNS
SF-295 CNS = system: SF-295 CNS
SF-539 CNS = system: SF-539 CNS
SK-MEL-2 melanoma = system: SK-MEL-2 melanoma
SK-MEL-28 melanoma = system: SK-MEL-28 melanoma
SK-MEL-5 melanoma = system: SK-MEL-5 melanoma
SK-OV-3 ovarian = system: SK-OV-3 ovarian
SN12C renal = system: SN12C renal
SNB-19 CNS = system: SNB-19 CNS
SNB-75 CNS = system: SNB-75 CNS
SW-620 colon = system: SW-620 colon
T-47D breast = system: T-47D breast
TK-10 renal = system: TK-10 renal
U251 CNS = system: U251 CNS
UACC-62 melanoma = system: UACC-62 melanoma
UO-31 renal = system: UO-31 renal

COc1cccc(N=Cc2c3ccccc3c(=O)n3c2oc2ccccc23)c1
GI50 (786-0 renal): 14 µM | TGI (786-0 renal): > 100 µM | GI50 (A498 renal): 17.2 µM | TGI (A498 renal): 61.4 µM | GI50 (A549 NSCLC): 4.84 µM | TGI (A549 NSCLC): 23.7 µM | GI50 (ACHN renal): 7.11 µM | TGI (ACHN renal): 30 µM | GI50 (BT-549 breast): 21.9 µM | TGI (BT-549 breast): > 100 µM | GI50 (CAKI-1 renal): 2.92 µM | TGI (CAKI-1 renal): 11.5 µM | GI50 (CCRF-CEM leukemia): 4.58 µM | TGI (CCRF-CEM leukemia): 73.2 µM | GI50 (COLO 205 colon): 34.5 µM | TGI (COLO 205 colon): > 100 µM | GI50 (DU-145 prostate): 21.8 µM | TGI (DU-145 prostate): > 100 µM | GI50 (EKVX NSCLC): 17.3 µM | TGI (EKVX NSCLC): > 100 µM | GI50 (HCC-2998 colon): 6.81 µM | TGI (HCC-2998 colon): 44.9 µM | GI50 (HCT-116 colon): 5.62 µM | TGI (HCT-116 colon): > 100 µM | GI50 (HCT-15 colon): 14.4 µM | TGI (HCT-15 colon): > 100 µM | GI50 (HOP-62 NSCLC): 13.7 µM | TGI (HOP-62 NSCLC): 90.1 µM | GI50 (HOP-92 NSCLC): 1.68 µM | TGI (HOP-92 NSCLC): 30.7 µM | GI50 (HS 578T breast): 34.9 µM | TGI (HS 578T breast): > 100 µM | GI50 (HT29 colon): 32.7 µM | TGI (HT29 colon): > 100 µM | GI50 (IGROV1 ovarian): 5.86 µM | TGI (IGROV1 ovarian): > 100 µM | GI50 (K-562 leukemia): 2.09 µM | TGI (K-562 leukemia): 6.05 µM | GI50 (KM12 colon): 3.78 µM | TGI (KM12 colon): 42.8 µM | GI50 (LOX IMVI melanoma): 5.13 µM | TGI (LOX IMVI melanoma): 30.3 µM | GI50 (M14 melanoma): 12.2 µM | TGI (M14 melanoma): > 100 µM | GI50 (MCF7 breast): 4.06 µM | TGI (MCF7 breast): > 100 µM | GI50 (MDA-MB-231 breast): 10.2 µM | TGI (MDA-MB-231 breast): 48.7 µM | GI50 (MDA-MB-435): 7.27 µM | TGI (MDA-MB-435): 46.4 µM | GI50 (MOLT-4 leukemia): 2.66 µM | TGI (MOLT-4 leukemia): 6 µM | GI50 (NCI-H23 lung): 13.3 µM | TGI (NCI-H23 lung): 59 µM | GI50 (NCI-H460 lung): 11.3 µM | TGI (NCI-H460 lung): > 100 µM | GI50 (NCI-H522 lung): 24 µM | TGI (NCI-H522 lung): > 100 µM | GI50 (NCI/ADR-RES ovarian): 11.6 µM | TGI (NCI/ADR-RES ovarian): 64.3 µM | GI50 (OVCAR-3 ovarian): 4.44 µM | TGI (OVCAR-3 ovarian): 45.3 µM | GI50 (OVCAR-4 ovarian): > 100 µM | TGI (OVCAR-4 ovarian): > 100 µM | GI50 (OVCAR-5 ovarian): 27.1 µM | TGI (OVCAR-5 ovarian): 87.4 µM | GI50 (OVCAR-8 ovarian): 7.82 µM | TGI (OVCAR-8 ovarian): 39 µM | GI50 (PC-3 prostate): 3.81 µM | TGI (PC-3 prostate): 39.6 µM | GI50 (RPMI-8226 leukemia): 6.54 µM | TGI (RPMI-8226 leukemia): 42.6 µM | TGI (RXF 393 renal): 20.9 µM | GI50 (SF-268 CNS): 37.1 µM | TGI (SF-268 CNS): > 100 µM | GI50 (SF-295 CNS): 4.53 µM | TGI (SF-295 CNS): 30.1 µM | GI50 (SF-539 CNS): 16.3 µM | TGI (SF-539 CNS): 95.3 µM | GI50 (SK-MEL-2 melanoma): > 100 µM | TGI (SK-MEL-2 melanoma): > 100 µM | GI50 (SK-MEL-28 melanoma): > 100 µM | TGI (SK-MEL-28 melanoma): > 100 µM | GI50 (SK-MEL-5 melanoma): 17.5 µM | TGI (SK-MEL-5 melanoma): 37.1 µM | GI50 (SK-OV-3 ovarian): 73.1 µM | TGI (SK-OV-3 ovarian): > 100 µM | GI50 (SN12C renal): 2.22 µM | TGI (SN12C renal): 23.5 µM | GI50 (SNB-19 CNS): 52.2 µM | TGI (SNB-19 CNS): > 100 µM | GI50 (SNB-75 CNS): 54.8 µM | TGI (SNB-75 CNS): > 100 µM | GI50 (SW-620 colon): 38 µM | TGI (SW-620 colon): > 100 µM | GI50 (T-47D breast): > 100 µM | TGI (T-47D breast): > 100 µM | GI50 (TK-10 renal): 2.95 µM | TGI (TK-10 renal): 7.69 µM | GI50 (U251 CNS): 7.67 µM | TGI (U251 CNS): > 100 µM | GI50 (UACC-62 melanoma): 2.58 µM | TGI (UACC-62 melanoma): 12.9 µM | GI50 (UO-31 renal): 42.7 µM | TGI (UO-31 renal): > 100 µM
